Source: ChEMBL document CHEMBL1201862, “PubChem BioAssay data set” (2004)
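These data come from cells grown in 96-well plates and exposed to compound for 48 hours at five concentrations. At the GI50, growth is halved.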 The source made the active and inactive calls. Cut-off read from the data, not from the text of the source: active = GI50 up to about 1.1 µM and inactive = higher.

Assays:
Assay in all cases: growth of human tumour cells (NCI), 48 h
A498 = system: A498
ACHN = system: ACHN
BT-549 = system: BT-549
DU-145 = system: DU-145
EKVX = system: EKVX
HCT-116 = system: HCT-116
HOP-62 = system: HOP-62
K562 = system: K562
MCF7 = system: MCF7
NCI/ADR-RES = system: NCI/ADR-RES
OVCAR-4 = system: OVCAR-4
OVCAR-5 = system: OVCAR-5
OVCAR-8 = system: OVCAR-8
PC-3 = system: PC-3
RXF 393 = system: RXF 393
SF-539 = system: SF-539
SR = system: SR
SW-620 = system: SW-620
MDA-N = system: MDA-N
SN12C = system: SN12C

Structure (SMILES) | GI50 (A498) | GI50 (ACHN) | GI50 (BT-549) | GI50 (DU-145) | GI50 (EKVX) | GI50 (HCT-116) | GI50 (HOP-62) | GI50 (K562) | GI50 (MCF7) | GI50 (NCI/ADR-RES) | GI50 (OVCAR-4) | GI50 (OVCAR-5) | GI50 (OVCAR-8) | GI50 (PC-3) | GI50 (RXF 393) | GI50 (SF-539) | GI50 (SR) | GI50 (SW-620) | GI50 (MDA-N) | GI50 (SN12C)
CC12CCC(/C(=N/c3cc(C(F)(F)F)cc(C(F)(F)F)c3)C1=O)C2(C)C (centres undefined) | 22.3 µM (inactive) | > 100 µM (inactive) | 32.5 µM (inactive) | 40.6 µM (inactive) | 78.7 µM (inactive) | 27.7 µM (inactive) | 39.8 µM (inactive) | 29.6 µM (inactive) | 28.4 µM (inactive) | 44.3 µM (inactive) | 44 µM (inactive) | 56.4 µM (inactive) | 81.5 µM (inactive) | 27.5 µM (inactive) | 12.3 µM (inactive) | 22.9 µM (inactive) | 18.8 µM (inactive) | 28.1 µM (inactive) | – | –
CC[C@H](C)[C@H](NC(=O)[C@H](Cc1ccc(O)cc1)NCC(F)(F)F)C(=O)OC(C)(C)C | 7.31 µM (inactive) | 7.33 µM (inactive) | 10.8 µM (inactive) | – | 6.87 µM (inactive) | 7.18 µM (inactive) | 9.25 µM (inactive) | 8.61 µM (inactive) | 7.74 µM (inactive) | 11.7 µM (inactive) | 5.64 µM (inactive) | 8.63 µM (inactive) | 12.4 µM (inactive) | 6.43 µM (inactive) | 7.16 µM (inactive) | 9.71 µM (inactive) | 5.97 µM (inactive) | 9.82 µM (inactive) | 8.32 µM (inactive) | 8.81 µM (inactive)
Clc1nc(Cl)c(Cl)c(-c2ccccc2)n1 | – | 17.4 µM (inactive) | 2.41 µM (inactive) | – | 16.6 µM (inactive) | – | 4.03 µM (inactive) | 1.44 µM (inactive) | 7.05 µM (inactive) | 5.62 µM (inactive) | 4.85 µM (inactive) | 20.3 µM (inactive) | 10.4 µM (inactive) | 10.5 µM (inactive) | 13.6 µM (inactive) | 11.8 µM (inactive) | 0.322 µM (active) | 1.94 µM (inactive) | – | 20 µM (inactive)
CCOC(=O)c1c(N2CCOCC2)[nH]c(=O)c(C(c2ccc(N(C)C)cc2)c2c(O)c(C(=O)OCC)c(N3CCOCC3)[nH]c2=O)c1O | > 100 µM (inactive) | > 100 µM (inactive) | > 100 µM (inactive) | > 100 µM (inactive) | > 100 µM (inactive) | > 100 µM (inactive) | > 100 µM (inactive) | > 100 µM (inactive) | > 100 µM (inactive) | > 100 µM (inactive) | > 100 µM (inactive) | > 100 µM (inactive) | > 100 µM (inactive) | > 100 µM (inactive) | > 100 µM (inactive) | > 100 µM (inactive) | > 100 µM (inactive) | > 100 µM (inactive) | – | > 100 µM (inactive)
CNC(=O)c1nnn(C2CCCCC2)c1S | > 100 µM (inactive) | > 100 µM (inactive) | – | > 100 µM (inactive) | > 100 µM (inactive) | > 100 µM (inactive) | > 100 µM (inactive) | > 100 µM (inactive) | > 100 µM (inactive) | > 100 µM (inactive) | > 100 µM (inactive) | > 100 µM (inactive) | > 100 µM (inactive) | > 100 µM (inactive) | > 100 µM (inactive) | 6.11 µM (inactive) | > 100 µM (inactive) | > 100 µM (inactive) | > 100 µM (inactive) | > 100 µM (inactive)
CC1=NN(C(=O)c2ccccc2O)C(=O)/C1=C/c1cccc([N+](=O)[O-])c1 | 0.164 µM (active) | 0.528 µM (active) | – | 1.55 µM (inactive) | 3.99 µM (inactive) | 0.463 µM (active) | 1.23 µM (inactive) | 0.364 µM (active) | 2.52 µM (inactive) | 6.81 µM (inactive) | 3.55 µM (inactive) | 10.4 µM (inactive) | 0.889 µM (active) | 7.06 µM (inactive) | 0.189 µM (active) | 0.377 µM (active) | > 100 µM (inactive) | 3.44 µM (inactive) | 0.608 µM (active) | 3.01 µM (inactive)
Cc1ccc2nc(-c3ccc(N)c(I)c3)sc2c1 | 20.4 µM (inactive) | 20.8 µM (inactive) | 97.7 µM (inactive) | – | 29 µM (inactive) | 54.6 µM (inactive) | 28.8 µM (inactive) | 21.3 µM (inactive) | – | 72.3 µM (inactive) | 2.09 µM (inactive) | 35.9 µM (inactive) | 67.5 µM (inactive) | 8.49 µM (inactive) | 24 µM (inactive) | 23.3 µM (inactive) | 4.2 µM (inactive) | 20.9 µM (inactive) | – | –
Cc1cc2ccccc2n2c1nc1ccc(O)cc12 | – | 9.91 µM (inactive) | > 10 µM (inactive) | > 10 µM (inactive) | > 10 µM (inactive) | > 10 µM (inactive) | > 10 µM (inactive) | > 10 µM (inactive) | > 10 µM (inactive) | > 10 µM (inactive) | > 10 µM (inactive) | > 10 µM (inactive) | 7.29 µM (inactive) | > 10 µM (inactive) | > 10 µM (inactive) | > 10 µM (inactive) | 9.73 µM (inactive) | > 10 µM (inactive) | – | 9.35 µM (inactive)
